Assay results taken from patent US8034353B2, “Peptide vaccine for inducing the production of anti-amyloid β-peptide antibody” (priority 2006, dated 2011).
Read-outs that look alike come from different tables or passages of the source.

Experiments:
Aβ (SEQ ID NO:2) = experiment: Anti-Aβ antibody titer in serum of transnasally vaccinated mice, ELISA (Experiment 1); format: in vivo, BALB/c female mice; conditions: BALB/c mice, transnasal 50 μg/mouse/once, four times at two weeks interval, serum one week after last administration
Description: The results are in Table 1.

T-cell [1] = format: cell-based, mice
T-cell [2] = format: cell-based, human

Row | Substance | Antibody titer Anti-Aβ antibody (Aβ (SEQ ID NO:2)) | Induction of blastogenesis of the T-cell (T-cell [1]) | Induction of blastogenesis of the T-cell (T-cell [2])
1 | RGD-Gag-KK-Aβ(1-13): RGD motif, Gag T-cell epitope (HIV-1 Gag 298-312), KK linker, Aβ(1-13) B-cell epitope (RGDKRWIILGLNKIVRMYKKDAEFRHDSGYEVH; peptide for the production of anti-amyloid beta antibody) | 32 | – | –
2 | QYIVNEDKFQILYNSIMYGF (tetanus toxoid (partial sequence)) [TetT3L] | – | inducing the blastogenesis of the T-cell | inducing the blastogenesis of the T-cell
3 | RGD-Gag-KK-Aβ(1-11): RGD motif, Gag T-cell epitope (HIV-1 Gag 298-312), KK linker, Aβ(1-11) B-cell epitope (RGDKRWIILGLNKIVRMYKKDAEFRHDSGYE; peptide for the production of anti-amyloid beta antibody) | 14.9 | – | –
4 | AYNFVESIINLFQVVHNSYN (diphtheria toxoid (partial sequence)) [DTL] | – | inducing the blastogenesis of the T-cell | inducing the blastogenesis of the T-cell
5 | RGD-Gag-KK-Aβ(3-11): RGD motif, Gag T-cell epitope (HIV-1 Gag 298-312), KK linker, Aβ(3-11) B-cell epitope (RGDKRWIILGLNKIVRMYKKEFRHDSGYE; peptide for the production of anti-amyloid beta antibody) | 22.6 | – | –
